In data set [1] the test system is healthy volunteers. As to the kind of experiment: Double-blind trial, miosis after oral capsule. It counts as in vivo, human. The conditions noted are these: oral, individual data, 33 45 mg, NB 35 mg, 39 68 mg. As for the experimental part:
Double-blind, NB hydrochloride and NB-39 controlled, trial of the antinociceptive effect of oral NB-33 in healthy volunteers. Each of the three healthy volunteers was assigned a set of 6 non-transparent gelatin capsules as follows: 2×NB hydrochloride (MW=393.4; 39 mg), 2×NB-33 (MW=451.6; 45 mg) and 2×NB-39 (MW=680.0; 68 mg). Each week a healthy volunteer would receive a pill from the assigned set in a random fashion and take it orally. At T=0 hr, 0.25 hr, 0.5 hr, 1 hr, 1.5 hr, 2 hr, 3 hr and 5 hr followed oral administration a heat pain threshold was measured (hot water at 50° C.) as well as miosis.
(§1) Following one week of a wash out period, each volunteer repeated the protocol until all pills from the assigned set were administered. The individual data for heat pain threshold as % MPE=[(test latency−baseline latency)/(baseline latency)]×100 and for miosis as % MPE=[(test diameter−baseline diameter)/(baseline diameter)]×100 are shown in Table 2 and Table 3 respectively.
(§2) Independent samples t-test was used to compare the means of % MPE analgesia and miosis in the two pairs of samples: NB-33 and NB and NB-33 and NB-39. All analyses were made using SPSS (v.25). • Bold indicates statistical significance at α=0.05

The next data set deals with Sprague-Dawley rats. In words: Antinociceptive activity, cold ethanol tail-flick test after oral gavage. The class given is in vivo, rat. The conditions noted are these: oral gavage in sesame oil, 60 uM/kg, one dose; tail-flick at −20° C., cutoff 40 seconds. Background: Hot-plate and tail-flick tests time the reaction to a heat stimulus.
Data set [2] concerns healthy volunteers. In words: Double-blind trial, heat pain threshold (hot water at 50° C.) after oral capsule. The class given is in vivo, human. The conditions noted are these: oral, individual data, 33 45 mg, NB 35 mg, 39 68 mg. The procedure: Double-blind, NB hydrochloride and NB-39 controlled, trial of the antinociceptive effect of oral NB-33 in healthy volunteers. […] Each week a healthy volunteer would receive a pill from the assigned set in a random fashion and take it orally. […]
as §1, §2

For data set [3] the following is noted: in vivo; cited from earlier work.

The structures appear in SMILES notation. Values joined by “and” are separate entries in the source; they are usually repeats but may differ in a detail not shown here. Identical values can stand only once.

As to `Oc1ccc2c3c1OC1C(O)CCC4(O)C(C2)N(CC2CCC2)CCC314` (centres unmarked) [NB, 3-(cyclobutylmethyl)-1,2,3,4,5,6,7,7a-octahydro-4aH-4,12-methanobenzofuro[3,2-e]isoquinoline-4a,7,9-triol], the “% MPE (miosis)” value with healthy volunteers [1] (0 hr (baseline)) was 0.0 % MPE; with healthy volunteers [1] (0.25 hr), 3.1 % MPE and 9.4 % MPE and 6.7 % MPE and 0.0 % MPE and 3.2 % MPE and 2.9 % MPE; in the data set on healthy volunteers [1] (0.5 hr) it was 9.4 % MPE (2×) and 37.5 % MPE and 0.0 % MPE and 9.7 % MPE and 8.8 % MPE; with healthy volunteers [1] (1 hr), 21.9 % MPE (2×) and 46.9 % MPE and 6.7 % MPE and 45.2 % MPE and −2.9 % MPE; in the data set with healthy volunteers [1] (1.5 hr), 17.2 % MPE (2×) and 65.6 % MPE and 25.0 % MPE and 45.2 % MPE and 29.4 % MPE; in the data set on healthy volunteers [1] (2 hr), 18.8 % MPE and 31.3 % MPE (2×) and 55.6 % MPE and 58.1 % MPE and 11.8 % MPE. For the same compound, the “% MPE (miosis)” value was 18.8 % MPE and 3.1 % MPE and 50.0 % MPE and 25.0 % MPE and 25.8 % MPE and 26.5 % MPE in the data set on healthy volunteers [1] (2.5 hr); 6.2 % MPE (2×) and 33.3 % MPE and 21.9 % MPE and 16.1 % MPE and 20.6 % MPE in the data set with healthy volunteers [1] (3 hr); 6.2 % MPE (2×) and 3.1 % MPE and 22.2 % MPE and 9.7 % MPE and 7.8 % MPE with healthy volunteers [1] (5 hr). Besides, the “Analgesia (rat)” value with Sprague-Dawley rats is “moderate”. The “% MPE (analgesia)” value was 0.0 % MPE in the data set on healthy volunteers [2] (0 hr (baseline)); 0.0 % MPE and 29.5 % MPE and 5.3 % MPE (2×) and 56.3 % MPE and 21.4 % MPE in the data set with healthy volunteers [2] (0.25 hr); 5.6 % MPE and 39.3 % MPE and 10.5 % MPE and 50.0 % MPE and 21.1 % MPE and 35.7 % MPE with healthy volunteers [2] (0.5 hr); 50.0 % MPE and 34.4 % MPE and 42.1 % MPE and 87.5 % MPE and 47.4 % MPE and 57.1 % MPE with healthy volunteers [2] (1 hr); 100.0 % MPE and 54.1 % MPE and 68.4 % MPE and 112.5 % MPE and 73.7 % MPE and 78.6 % MPE in the data set with healthy volunteers [2] (1.5 hr); 94.4 % MPE and 54.1 % MPE and 94.7 % MPE and 162.5 % MPE and 57.9 % MPE and 50.0 % MPE in the data set on healthy volunteers [2] (2 hr). In addition, the “% MPE (analgesia)” value in the data set with healthy volunteers [2] (2.5 hr) was 66.7 % MPE and 82.0 % MPE and 57.9 % MPE and 106.3 % MPE and 36.8 % MPE and 35.7 % MPE; in the data set on healthy volunteers [2] (3 hr), 22.2 % MPE and 32.8 % MPE and 68.4 % MPE and 37.5 % MPE and 57.9 % MPE and 0.0 % MPE; with healthy volunteers [2] (5 hr) it was −5.6 % MPE and 27.9 % MPE and 5.3 % MPE (2×) and 26.7 % MPE and 0.0 % MPE. The oral bioavailability result in data set [3] is “low”.

(Values after patent US11186585B2 (priority 2018, dated 2021).)
